# d = 2'-deoxy (DNA); r = 2'-OH (RNA)
# Tested on: A549 cells-derived tumors
# Assay: Next-generation sequencing (NGS) of si-NT- and si-hSMAC-A-treated tumors
# Assay type: in vivo, human
# Protocol: Libraries were prepared by the INCPM-RNA-seq unit (Weizmann Institute, Israel). Briefly, polyA fraction (mRNA) was purified from 500 ng of total RNA, isolated as above, followed by fragmentation and generation of double stranded cDNA. End repair, a base addition, adapter ligation and PCR amplification steps were performed according to established methods. Libraries were evaluated by Qubit and TapeStation. Sequencing libraries were constructed with barcodes to allow multiplexing of 20 samples in one lane. Between 22 and 26 million reads single-end 60-bp reads were sequenced per sample on Illumina HiSeq 2500 V4 instrument.
# Bioinformatics analyses were carried out at the Bioinformatics Core Facility at the National Institute for Biotechnology in the Negev, Ben-Gurion University. Raw sequence reads were assessed for quality using FASTQC and further trimmed for removal of remaining adaptors and low quality bases using Trimmomatic. The trimmed reads from each sample were separately aligned to the human and mouse genomes (GRCh38 and GRCm38.75, respectively) using STAR v2.3.0 with default settings. An average of 23.7±0.8 million reads per sample was obtained. Of these, an average of 13, 2.6, 7.8 and 0.3 million reads were mapped to human only, mouse only, both human and mouse, and none of them, respectively. After rejection of multi-mapped reads, a total of 11.5±2.5 human-specific, uniquely mapped reads, and 2.3±1.7 mouse-specific, uniquely mapped reads were subjected for further analysis. The number of aligned reads per gene per sample were counted using HTSeq count with “intersection-nonempty” (to handle reads that overlap with more than one gene) and “no stranded” as parameters. The other parameters were set to their default. Normalization and statistical analysis for differential expression were carried out using DESeq2 v1.6.3. Fold change values were converted to linear scale, with a minus sign indicating down-regulation.
# Differentially expressed genes were defined as those having a p-value<0.05, and linear fold change>1.5 and <−1.5. Functional analysis was performed using the Gene Ontology system, DAVID and Expander software tools.
# NGS was used to investigate changes in patterns of gene expression in si-NT-TTs and si-hSMAC-A-TTs (FIG. 10, and Tables 3-5). […] As si-hSMAC is human-specific, any effect on mouse gene expression must be mediated by the human tumor cells.
# The major functional groups were changes were seen are presented below.
# [1] = vs si-NT-TTs, EXTRACELLULAR MATRIX
# [2] = vs si-NT-TTs, EXTRACELLULAR SPACE
# [3] = vs si-NT-TTs, METABOLISM RELATED ENZYMES
# [4] = vs si-NT-TTs, METABOLISM RELATED ENZYMES, listed as si-SMAC
# [5] = vs si-NT-TTs, REDOX STATE REGULATION
substance,measurement,setting,value
"si-hSMAC-A: siRNA to human SMAC/Diablo; sense 5′AAGCGGUGUUUCUCAGAAUUGtt3′ (SEQ ID NO:20), antisense 5′AACAAUUCUGAGAAACCCGCtt3′ (SEQ ID NO:21) (sense AAGCGGUGUUUCUCAGAAUUGTT; antisense AACAAUUCUGAGAAACCCGCTT; sense: sugars from the 5' end r21 d2, backbone not given here; antisense: sugars from the 5' end r20 d2, backbone not given here)",Fold change FBN1,[1],−1.7 fold
same,Fold change GPC6,[1],−1.8 fold
same,Fold change MMP2,[1],−2.9 fold
same,Fold change NLGN2,[1],−1.8 fold
same,Fold change SMOC1,[1],−1.6 fold
same,Fold change TGFBI,[1],−1.9 fold
same,Fold change VCAN,[1],−1.5 fold
same,Fold change VTN,[1],−1.6 fold
same,Fold change CCL24,[2],1.9 fold
same,Fold change CCL28,[2],1.9 fold
same,Fold change CPM,[2],−1.7 fold
same,Fold change CX3CL1,[2],1.6 fold
same,Fold change IGFBP1,[2],−1.6 fold
same,Fold change IGFBP3,[2],−1.8 fold
same,Fold change LGALS3,[2],1.6 fold
same,Fold change MST1,[2],−1.6 fold
same,Fold change PROC,[2],1.8 fold
same,Fold change SPINK1,[2],1.9 fold
same,Fold change SPINT1,[2],1.7 fold
same,Fold change WISP2,[2],−1.7 fold
same,Fold change ACSLA (acyl-CoA synthetase long-chain family member 4),[3],−1.6 fold
same,Fold change ADARB1,[3],−2.1 fold
same,Fold change ADH4,[3],−2.6 fold
same,Fold change ADI1,[3],1.8 fold
same,Fold change AGPAT2,[3],1.6 fold
same,Fold change B3GNT6,[3],2.1 fold
same,Fold change BLVRA,[3],1.7 fold
same,Fold change CAD,[3],−1.6 fold
same,Fold change CDA,[3],2.0 fold
same,Fold change CMAS,[3],1.5 fold
same,Fold change DGAT2,[3],4.9 fold
same,Fold change DGKD,[3],−1.5 fold
same,Fold change DHRS9,[3],2.8 fold
same,Fold change ELOVL3,[3],7.4 fold
same,Fold change ELOVL4,[3],145.2 fold
same,Fold change ENTPD8,[3],2.7 fold
same,Fold change FAR2,[3],4.1 fold
same,Fold change FASN,[3],−1.5 fold
same,Fold change FAXDC2,[3],2.1 fold
same,Fold change FUT3,[3],2.7 fold
same,Fold change FUT6,[3],1.8 fold
same,Fold change GALNT5,[3],1.6 fold
same,Fold change GALNT6,[3],1.9 fold
same,Fold change GALNT12,[3],1.6 fold
same,Fold change GCNT3,[3],1.7 fold
same,Fold change GPT2,[3],1.5 fold
same,Fold change LIPH,[3],1.9 fold
same,Fold change MGAT4B,[3],1.5 fold
same,Fold change ORMDL2,[3],1.5 fold
same,Fold change PADI1,[3],3.8 fold
same,Fold change PCK1,[3],−6.9 fold
same,Fold change PLCB4,[3],1.7 fold
same,Fold change SDR16C5,[3],3.0 fold
same,Fold change ST3GAL4,[3],1.5 fold
same,Fold change ST6GALNAC1,[3],1.6 fold
same,Fold change STARD10,[3],3.7 fold
same,Fold change ELOVL3,[4],7 fold
same,Fold change ELOVL4,[4],145 fold
same,Fold change ANXA10,"vs si-NT-TTs, Mitochondria",−1.7 fold
same,Fold change BIK,"vs si-NT-TTs, Mitochondria",2.1 fold
same,Fold change C10orf2 (TWINK),"vs si-NT-TTs, Mitochondria",−1.9 fold
same,Fold change CHCHD7,"vs si-NT-TTs, Mitochondria",1.6 fold
same,Fold change CPS1,"vs si-NT-TTs, Mitochondria",−4.8 fold
same,Fold change CYP24A1,"vs si-NT-TTs, Mitochondria",−1.9 fold
same,Fold change ENDOG,"vs si-NT-TTs, Mitochondria",1.8 fold
same,Fold change MT-ND4L,"vs si-NT-TTs, Mitochondria",−1.9 fold
same,Fold change MT-ND5,"vs si-NT-TTs, Mitochondria",−1.6 fold
same,Fold change MYO19,"vs si-NT-TTs, Mitochondria",−1.6 fold
same,Fold change STARD13,"vs si-NT-TTs, Mitochondria",−2.2 fold
same,Fold change GSTP1,[5],−1.6 fold
same,Fold change NOS1,[5],−5.9 fold
same,Fold change PXDN,[5],3.3 fold
same,Fold change SOD2,[5],−1.9 fold
same,Fold change TXN,[5],2.1 fold
same,Fold change ANO1,"vs si-NT-TTs, TRANSPORTERS",3.4 fold
same,Fold change ATP10B,"vs si-NT-TTs, TRANSPORTERS",25.5 fold
same,Fold change CRACR2A,"vs si-NT-TTs, TRANSPORTERS",3.2 fold
same,Fold change GLTP,"vs si-NT-TTs, TRANSPORTERS",1.8 fold
same,Fold change KCNK1,"vs si-NT-TTs, TRANSPORTERS",1.7 fold
same,Fold change KCNN4,"vs si-NT-TTs, TRANSPORTERS",1.8 fold
same,Fold change SCNN1A,"vs si-NT-TTs, TRANSPORTERS",1.9 fold
same,Fold change SLC4A4,"vs si-NT-TTs, TRANSPORTERS",−3.3 fold
same,Fold change SLC6A9,"vs si-NT-TTs, TRANSPORTERS",−1.7 fold
same,Fold change SLC24A1,"vs si-NT-TTs, TRANSPORTERS",−1.6 fold
same,Fold change SLC25A37,"vs si-NT-TTs, TRANSPORTERS",−1.5 fold
same,Fold change SLC44A4,"vs si-NT-TTs, TRANSPORTERS",2.2 fold
same,Fold change SLC45A3,"vs si-NT-TTs, TRANSPORTERS",1.8 fold
same,Fold change SLCO2B1,"vs si-NT-TTs, TRANSPORTERS",−2.8 fold
same,Fold change TMC4,"vs si-NT-TTs, TRANSPORTERS",6.3 fold
same,Fold change TMC8,"vs si-NT-TTs, TRANSPORTERS",2.4 fold
same,Fold change ATP10B,"vs si-NT-TTs, TRANSPORTERS, listed as si-SMAC",25 fold
same,number of genes with significant changes,"≥1.5-fold change, adjusted P value<0.05, human and murine",848
